The results in this text go back to patent US10703756B2, “Pyrrolo[2,3-D]pyrimidinyl, pyrrolo[2,3-B]pyrazinyl, pyrrolo[2,3-B]pyridinyl acrylamides and epoxides thereof” (Pfizer Inc., priority 2015, dated 2020).

The nature of data set [1]: Stability of JAK3 Covalent Inhibitors in Human Whole Blood. It is filed as in vitro ADME. The settings on record: both sexes, 1 μM test compound, 37° C., 180 min incubation, read-out: Human blood stability t1/2. Here is the method: Stability of JAK3 Covalent Inhibitors in Rat and Human Whole Blood
Rat blood was collected from 3 male Sprague-Dawley rats (200-250 g, Charles River Laboratories) and pooled for each study. Human blood was collected from healthy subjects at the Occupational Health & Wellness Center at Pfizer, Groton, Conn. and pooled for each study. Both rat and human blood was collected freshly into K2-EDTA tubes and kept on ice. An aliquot of the blood was transferred to microtubes and pre-warmed for 10 min at 37° C. using a heat block. The test compound was then added (1 μM final concentration) and the incubation was continued for 180 min at 37° C. in duplicates. An aliquot of the incubation mixture was removed at designated time points during the course of the incubation, mixed with an aliquot of acetonitrile containing an internal standard, vortexed and centrifuged. The resulting supernatants were removed and subjected to LC-MS/MS analyses to determine parent compound concentrations. Peak area ratios of the parent compound vs the internal standard were used to determine the % of parent compound remaining vs incubation time.

The target of data set [2] is T1, JAK3 enzyme (Homo sapiens, UniProt P52333).
T1 sequence (P52333 1-1124): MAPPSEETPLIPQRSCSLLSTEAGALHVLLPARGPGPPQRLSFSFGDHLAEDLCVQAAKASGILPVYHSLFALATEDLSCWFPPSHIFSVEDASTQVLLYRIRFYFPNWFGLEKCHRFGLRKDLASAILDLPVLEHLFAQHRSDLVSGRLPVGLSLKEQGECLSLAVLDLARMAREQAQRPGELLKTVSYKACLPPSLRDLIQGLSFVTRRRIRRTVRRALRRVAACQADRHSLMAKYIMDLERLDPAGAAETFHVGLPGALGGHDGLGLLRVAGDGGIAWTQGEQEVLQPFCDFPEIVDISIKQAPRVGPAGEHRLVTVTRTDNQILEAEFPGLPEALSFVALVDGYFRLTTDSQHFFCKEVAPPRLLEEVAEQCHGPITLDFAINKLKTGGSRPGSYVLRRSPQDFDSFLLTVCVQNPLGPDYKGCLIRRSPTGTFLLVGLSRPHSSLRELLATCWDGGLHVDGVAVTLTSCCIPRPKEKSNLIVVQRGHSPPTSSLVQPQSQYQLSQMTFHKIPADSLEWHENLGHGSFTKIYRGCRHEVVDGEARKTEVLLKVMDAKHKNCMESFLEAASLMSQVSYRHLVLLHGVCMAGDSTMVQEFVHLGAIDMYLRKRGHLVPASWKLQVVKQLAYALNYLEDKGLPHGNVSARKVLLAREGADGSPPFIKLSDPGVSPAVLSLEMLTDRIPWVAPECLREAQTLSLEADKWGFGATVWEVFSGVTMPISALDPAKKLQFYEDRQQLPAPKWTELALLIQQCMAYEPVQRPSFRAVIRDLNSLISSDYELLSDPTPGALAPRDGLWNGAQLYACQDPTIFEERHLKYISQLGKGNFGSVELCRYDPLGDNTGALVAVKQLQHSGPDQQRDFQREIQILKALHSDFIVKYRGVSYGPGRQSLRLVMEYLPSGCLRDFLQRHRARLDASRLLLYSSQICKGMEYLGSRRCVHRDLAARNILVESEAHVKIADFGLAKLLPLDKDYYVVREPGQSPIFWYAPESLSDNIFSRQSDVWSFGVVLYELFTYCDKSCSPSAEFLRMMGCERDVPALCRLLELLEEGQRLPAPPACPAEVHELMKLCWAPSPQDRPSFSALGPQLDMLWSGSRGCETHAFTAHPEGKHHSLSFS
Briefly: JAK Caliper Enzyme Assay at 1 mM ATP. The format is biochemical. The gist of the method:
(§1)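 Kinase activity is measured by separating phosphorylated from unphosphorylated peptide on a microfluidic chip. Per enzyme batch, protein concentration and incubation time are optimized to give 20%-30% substrate turnover.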

The target in data set [3] is T1, JAK3 enzyme. Briefly: JAK Caliper Enzyme Assay at 4 μM ATP. It is filed as biochemical. The gist of the method:
as §1

For data set [4], the system named is IL-15 induced P-STAT5 in human PBMC. Briefly: PBMC IL-15 Induced P-STAT5. The format is cell-based. The gist of the method: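 Flow cytometry gated on total lymphocytes measured STAT5 staining (Alexa Fluor 647 antibody, overnight, 4 °C) in fixed, methanol-permeabilised human PBMC. Cells had received compound for 15 min at 37 °C (0.2% DMSO final), followed by 41 ng/mL final human IL-15 for 15 min.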

Where [5] appears, read: human PBMC, IL-15 final 41 ng/mL, read-out: PBMC IL15_pSTAT5_IC50.
The mark [6] stands for this setting: Homo sapiens, PBMC, read-out: PBMC IL15_pSTAT5_IC50 (nM).

Read-outs that look alike come from different tables or passages of the source.

For `C=CC(=O)N1CCC(N(C)c2cnc3[nH]cc(C(=O)NCC)c3n2)CC1` [Example 60, 2-[(1-acryloylpiperidin-4-yl)(methyl)amino]-N-ethyl-5H-pyrrolo[2,3-b]pyrazine-7-carboxamide], the half-life at 1 μM in data set [1] was determined as 2.97 h. The results for the IC50 (against JAK3 enzyme [2]; against JAK3 enzyme [3]; in data set [4] (setting [5])) were 130 nM, 0.448 nM and 379 nM, respectively.
Regarding `C=CC(=O)N1CC[C@H](Nc2cnc3[nH]cc(C(=O)NCC)c3n2)[C@@H](OC)C1` (single isomer, unassigned) [Example 27], the half-life at 1 μM in data set [1] is above 6 h. Further, the IC50 was found to be 19 nM against JAK3 enzyme [2], 0.468 nM at JAK3 enzyme [3] and 382 nM in data set [4] (setting [5]).
Take `C=CC(=O)N1CC[C@H](Oc2cnc3[nH]cc(C(=O)N[C@@H](C)COC)c3n2)C[C@H]1C` (single isomer, unassigned) [Example 72]: the half-life at 1 μM in data set [1] was found to be 2.77 h. Further, the IC50 at JAK3 enzyme [2] worked out at 80 nM; against JAK3 enzyme [3], 1.13 nM; in data set [4] (setting [5]), 415 nM.
As for `C=CC(=O)N1CC[C@H](Nc2cnc3[nH]cc(C(=O)N[C@H](C)COC)c3n2)C[C@@H]1C` (single isomer, unassigned) [Example 57], the half-life at 1 μM in data set [1] was above 6 h. For the same compound, the IC50 worked out at 241 nM on JAK3 enzyme [2], 4.45 nM on JAK3 enzyme [3] and 3220 nM in data set [4] (setting [6]).
Consider `C=CC(=O)N1CCC(Nc2cnc3[nH]cc(C(=O)NCC(C)C)c3n2)C1` (stereo in doubt) [Example 256, 2-{[(3S)-1-acryloylpyrrolidin-3-yl]amino}-N-(2-methylpropyl)-5H-pyrrolo[2,3-b]pyrazine-7-carboxamide], for which the half-life at 1 μM in data set [1] amounted to 4.58 h. In addition, the IC50 against JAK3 enzyme [2] came to 23 nM; at JAK3 enzyme [3], 0.124 nM; in data set [4] (setting [5]), 531 nM.
On to `C=CC(=O)N1CC[C@H](Nc2cnc3[nH]cc(C(=O)N[C@@H](C)COC)c3n2)C[C@@H]1C` (racemic) [Example 353, 2-(((2S,4S)-1-Acryloyl-2-methylpiperidin-4-yl)amino)-N—((S)-1-methoxypropan-2-yl)-5H-pyrrolo[2,3-b]pyrazine-7-carboxamide], for which the half-life at 1 μM in data set [1] was above 6 h. In addition, the values for the IC50 (against JAK3 enzyme [2]; against JAK3 enzyme [3]; in data set [4] (setting [5])) were 123 nM, 1.48 nM and 2200 nM, respectively.
As to `C=CC(=O)N1C[C@@H](Nc2cnc3[nH]cc(C(=O)N[C@H](C)COC)c3n2)CC[C@H]1C` (racemic) [Example 68, Cis-racemic-2-{[1-acryloyl-6-methylpiperidin-3-yl]amino}-N-[(2R)-1-methoxypropan-2-yl]-5H-pyrrolo[2,3-b]pyrazine-7-carboxamide], in data set [1], the half-life at 1 μM is above 6 h. Further, the IC50 against JAK3 enzyme [2] was determined as 247 nM; against JAK3 enzyme [3] it was 2.17 nM; in data set [4] (setting [5]) it was 4570 nM.
The like results for `C=CC(=O)N1CCCC1COc1cnc2[nH]cc(C(=O)N[C@@H](C)COC)c2n1` (mixture of isomers) [Example 7, Racemic-2-[(1-acryloylpyrrolidin-2-yl)methoxyl]-N-[(2S)-1-methoxypropan-2-yl]-5H-pyrrolo[2,3-b]pyrazine-7-carboxamide] were, in that order, 2.63 h, 106 nM, 1.49 nM and 403 nM.
In the case of `C=CC(=O)N1CCC(Oc2cnc3[nH]cc(-c4ncn(C(C)C)n4)c3n2)CC1` [Example 124, 1-[4-({7-[1-(Propan-2-yl)-1H-1,2,4-triazol-3-yl]-5H-pyrrolo[2,3-b]pyrazin-2-yl}oxy)piperidin-1-yl]prop-2-en-1-one], in data set [1], the half-life at 1 μM turned out to be 4.86 h. The IC50 was determined as 1100 nM on JAK3 enzyme [2], 5.89 nM against JAK3 enzyme [3] and 2430 nM in data set [4] (setting [5]).
Consider `C=CC(=O)N1CC[C@@H](Nc2cnc3[nH]cc(C(=O)NCC)c3n2)[C@H](O)C1` (single isomer, unassigned) [Example 33], for which the half-life at 1 μM in data set [1] stood at 3.47 h. In addition, the values for the IC50 (against JAK3 enzyme [2]; at JAK3 enzyme [3]; in data set [4] (setting [5])) were 34 nM, 0.23 nM and 2810 nM, respectively.
For `C=CC(=O)N1CC[C@@H](Nc2cnc3[nH]cc(C(=O)N[C@@H](C)COC)c3n2)C[C@H]1C` (stereo in doubt) [Example 56, 2-{[(2R,4R)-1-acryloyl-2-methylpiperidin-4-yl]amino}-N-[(2S)-1-methoxypropan-2-yl]-5H-pyrrolo[2,3-b]pyrazine-7-carboxamide], in data set [1], the half-life at 1 μM is above 6 h. Also, the IC50 on JAK3 enzyme [2] was 70 nM; on JAK3 enzyme [3], 0.927 nM; in data set [4] (setting [6]), 1600 nM.
As for `C=CC(=O)N1CC(Nc2cnc3[nH]cc(C(=O)NCC)c3n2)CCC1C` (single isomer, unassigned) [Example 76], the half-life at 1 μM in data set [1] is above 6 h. Also, the IC50 came to 136 nM against JAK3 enzyme [2], 0.566 nM against JAK3 enzyme [3] and 1150 nM in data set [4] (setting [5]).
On to `C=CC(=O)N1CCC(Nc2cnc3[nH]cc(C(=O)NCCCC(F)(F)F)c3n2)C1` (stereo in doubt) [Example 237, 2-{[(3S)-1-acryloylpyrrolidin-3-yl]amino}-N-(4,4,4-trifluorobutyl)-5H-pyrrolo[2,3-b]pyrazine-7-carboxamide], for which the half-life at 1 μM in data set [1] is 4.32 h. Also, the IC50 at JAK3 enzyme [2] was determined as 56 nM; against JAK3 enzyme [3] it was 0.25 nM; in data set [4] (setting [5]) it was 780 nM.
On to `C=CC(=O)N1C[C@H](Nc2cnc3[nH]cc(C(=O)N[C@H](C)COC)c3n2)CC[C@@H]1C` (single isomer, unassigned) [Example 69], for which the half-life at 1 μM in data set [1] was above 6 h. For the same compound, the figures for the IC50 (against JAK3 enzyme [2]; on JAK3 enzyme [3]; in data set [4] (setting [5])) were 137 nM, 0.782 nM and 2610 nM, respectively.
Regarding `C=CC(=O)N1C[C@@H](O)C[C@@H](Nc2ncnc3[nH]cc(C#N)c23)C1` [Example 113, 4-{[(3R,5S)-1-Acryloyl-5-hydroxypiperidin-3-yl]amino}-7H-pyrrolo[2,3-d]pyrimidine-5-carbonitrile], the half-life at 1 μM in data set [1] was above 6 h. The IC50 against JAK3 enzyme [2] was 589 nM; on JAK3 enzyme [3], 2.4 nM; in data set [4] (setting [5]) it was 1940 nM.
With `C=CC(=O)N(C)C1CN(c2cnc3[nH]cc(C(=O)N[C@@H](C)COC)c3n2)C1` [Example 85, 2-{3-[acryloyl(methyl)amino]azetidin-1-yl}-N-[(2S)-1-methoxypropan-2-yl]-5H-pyrrolo[2,3-b]pyrazine-7-carboxamide], in data set [1], the half-life at 1 μM was determined as 1.38 h. The IC50 turned out to be 467 nM at JAK3 enzyme [2] and 2.91 nM at JAK3 enzyme [3].
The like results for `C=CC(=O)N1CC[C@@H](Nc2cnc3c(n2)c(C(=O)NCC)cn3C)C[C@H]1C` (single isomer, unassigned) [Example 351] were, in that order, 5.52 h, 838 nM and 2.88 nM.
Take `C=CC(=O)N1CCC(Oc2cnc3[nH]cc(-c4nnc[nH]4)c3n2)CC1` [Example 120, 1-(4-{[7-(4H-1,2,4-Triazol-3-yl)-5H-pyrrolo[2,3-b]pyrazin-2-yl]oxy}piperidin-1-yl)prop-2-en-1-one]: the half-life at 1 μM in data set [1] was above 6 h. For the same compound, the results for the IC50 against JAK3 enzyme [2] and against JAK3 enzyme [3] were 725 nM and 4.48 nM, respectively.
